“Also recorded” adds a separate entry of the source. Where a SMILES comes first, the peptide text is derived from it. [ ]: non-standard residue; d: D form.
Key:
[1] = Rat administration study, detection in plasma after intravenous administration; assay type: in vivo, Wistar; settings: for In vivo biotransformation in rats (in words) / Anticipated metabolic products (N- or C-terminally truncated analogues) in rat plasma / Detection of intact GHRH in rat plasma 4 h post-administration / Detection of intact GHRH in rat plasma 8 h post-administration: 0.1 mg intravenous; for In vivo biotransformation in rats (in words): compared to CJC-1295; for Anticipated metabolic products (N- or C-terminally truncated analogues) in rat plasma: plasma 2, 4 and 8 h; for Detection of intact GHRH in rat plasma 4 h post-administration: plasma 4 h post dosing; for Detection of intact GHRH in rat plasma 4 h post-administration / Detection of intact GHRH in rat plasma 8 h post-administration: immunoaffinity purification and LC-HRMS/MS; for Detection of intact GHRH in rat plasma 8 h post-administration: plasma 8 h post dosing (latest collection time point)
Protocol: (§1) Sample aliquots of 100 μL of plasma were spiked with 1 μL of ISTD [200 ng/mL] and diluted with 100 μL of PBS before extraction. The multichannel pipette was equipped with up to 12 protein A/G MSIA™-Tips and up to 2000 cycles (one cycle corresponding to one round of liquid aspiration and ejection) were used for distinct sample preparation steps as outlined in Table 2. First, tips were conditioned with PBS before binding 10 μg of the polyclonal GHRH primary antibody (5 μL [2 mg/mL] in 95 μL PBS) to the proteins A/G immobilized on the monolithic adsorbent surface. After washing with PBS to remove unbound antibody residues the target analytes were extracted from plasma by antibody-antigen complex formation prior to three consecutive washing steps with PBS and water (Table 2). The peptides of interest were eluted into LoBind tubes using 3 % of aqueous acetic acid and the eluate was immediately used for injection into the UHPLC-MS(/MS) system. In Fig. 1, a schematic illustration of the relevant principle steps of the MSIA™ purification is presented.
To probe for the in vivo metabolism of Sermorelin, CJC-1293, CJC-1295, and Tesamorelin, 0.1 mg of each GHRH was administered intravenously to three rats (Rattus norvegicus, Wistar, 200–300 g bodyweight at dosing). Urine samples were collected in a metabolic cage prior to and 6, 12, 24, and 30 h after administration but not subjected to analysis in this study. Blood was sampled at 2, 4, and 8 h after injection and specimens were centrifuged at 13,000×g for 20 min to produce serum or EDTA plasma, which was stored at −20 °C until analysis. The animal studies were conducted with approval of the respective ethical committee and the laboratory followed the directive 2010/63/EU of the European parliament and the council of 22 September 2010 on the protection of animals used for scientific purposes.
All intact GHRHs administered intravenously to rats were detected in plasma samples collected 2 h post dosing. In addition, Tesamorelin, CJC-1295, and CJC-1293 were also identified in specimens sampled 4 and 8 h post-administrating (Fig. 3), with the 8-h sample representing the latest collection time point of the study. Here it appears noteworthy that only qualitative results were obtained and that no pharmacokinetic interpretation was conducted. While all analytes were unequivocally identified and differentiated by mass spectrometry, chromatographic separation was accomplished for all target peptides with the exemption of the closely related compounds Sermorelin and CJC-1293 under the chosen analytical conditions.

[2] = Human administration study, detection in EDTA plasma after subcutaneous Geref (Sermorelin); assay type: in vivo; settings: healthy volunteer, 500 μg Geref (Sermorelin) subcutaneous, n = 1
Protocol: as §1
Complementary to the aforementioned rat elimination study, a single dose of 500 μg of Geref (Sermorelin) (Hallandale Pharmacy, FL, USA) was self-administered subcutaneously by a healthy volunteer (78 kg) following the provision of written consent. EDTA plasma samples were collected 30, 90, and 270 min after dosing and the specimens were stored at −20 °C until analysis.
Compared to rat plasma samples collected after the intravenous application of Sermorelin, the human in vivo study (using subcutaneous drug application) indicates a different but also rapid metabolism of the peptide hormone. While the intact drug was not detected in any of the collected plasma samples, the in vitro-derived Sermorelin metabolite GRF3-29 was detected in plasma 30 min post injection (Fig. 4).

[3] = In vitro incubation in fresh human plasma (metabolic fate / degradation); assay type: in vitro ADME; settings: fresh human plasma diluted 1:1 with PBS, qualitative; for Degradation products (metabolites) detected after incubation in human plasma: spiked to 10 μg/mL, 30, 60, 120 and 240 min at 37 °C, LC-HRMS full scan before vs after incubation
Protocol: For the investigation of the metabolic fate of GHRHs, in vitro experiments using fresh human plasma samples were conducted, allowing to test for potential degradation products of the studied substances. In accordance to earlier reported methods, aliquots of human plasma samples were diluted (1:1) with PBS [22] and spiked to 10 μg/mL with Sermorelin or Tesamorelin, respectively. After incubation for 30, 60, 120, and 240 min at 37 °C, samples were prepared and analyzed as described elsewhere. Simulating degradation processes of exopeptidases, potential metabolites were considered by eliminating up to three amino acids from both N- and C-terminus. All samples were probed for the anticipated metabolic products as well as for the corresponding intact drugs.
Identifying potential metabolites of Sermorelin and Tesamorelin was accomplished by subtracting and comparing mass spectrometric full scan data of samples prepared before and after incubation of the substrates in fresh human plasma.

[4] = system: dipeptidyl peptidase-IV (DPP-IV); test: in vitro; settings: cited from earlier work
[5] = fresh human plasma samples diluted (1:1) with PBS; settings: 37 °C, up to 240 min
[6] = EDTA plasma samples after subcutaneous self-administration of Geref (Sermorelin); settings: human, up to 270 min
[7] = rat serum or EDTA plasma after intravenous administration; settings: rats (Rattus norvegicus, Wistar), up to 8 h

## CC[C@H](C)[C@H](NC(=O)[C@H](C)NC(=O)[C@H](CC(=O)O)NC(=O)[C@@H](C)NC(=O)[C@@H](N)Cc1ccc(O)cc1)C(=O)N[C@@H](Cc1ccccc1)C(=O)N[C@H](C(=O)N[C@@H](CC(N)=O)C(=O)N[C@@H](CO)C(=O)N[C@@H](Cc1ccc(O)cc1)C(=O)N[C@@H](CCCNC(=N)N)C(=O)N[C@@H](CCCCN)C(=O)N[C@H](C(=O)N[C@@H](CC(C)C)C(=O)NCC(=O)N[C@@H](CCC(N)=O)C(=O)N[C@@H](CC(C)C)C(=O)N[C@@H](CO)C(=O)N[C@@H](C)C(=O)N[C@@H](CCCNC(=N)N)C(=O)N[C@@H](CCCCN)C(=O)N[C@@H](CC(C)C)C(=O)N[C@@H](CC(C)C)C(=O)N[C@@H](CCC(N)=O)C(=O)N[C@@H](CC(=O)O)C(=O)N[C@H](C(=O)N[C@@H](CCSC)C(=O)N[C@@H](CO)C(=O)N[C@@H](CCCNC(=N)N)C(N)=O)[C@@H](C)CC)C(C)C)[C@@H](C)O [CJC-1293, (D-Ala^2)-GRF amide]
[1]
  In vivo biotransformation in rats (in words): readily biotransformed
[1]; qualitative
  Anticipated metabolic products (N- or C-terminally truncated analogues) in rat plasma: none of the anticipated metabolic products; also recorded: no analogous metabolites
  Detection of intact GHRH in rat plasma 4 h post-administration: identified
  Detection of intact GHRH in rat plasma 8 h post-administration: identified

## CC[C@H](C)[C@H](NC(=O)[C@H](C)NC(=O)[C@H](CC(=O)O)NC(=O)[C@@H](C)NC(=O)[C@@H](N)Cc1ccc(O)cc1)C(=O)N[C@@H](Cc1ccccc1)C(=O)N[C@H](C(=O)N[C@@H](CCC(N)=O)C(=O)N[C@@H](CO)C(=O)N[C@@H](Cc1ccc(O)cc1)C(=O)N[C@@H](CCCNC(=N)N)C(=O)N[C@@H](CCCCN)C(=O)N[C@H](C(=O)N[C@@H](CC(C)C)C(=O)N[C@@H](C)C(=O)N[C@@H](CCC(N)=O)C(=O)N[C@@H](CC(C)C)C(=O)N[C@@H](CO)C(=O)N[C@@H](C)C(=O)N[C@@H](CCCNC(=N)N)C(=O)N[C@@H](CCCCN)C(=O)N[C@@H](CC(C)C)C(=O)N[C@@H](CC(C)C)C(=O)N[C@@H](CCC(N)=O)C(=O)N[C@@H](CC(=O)O)C(=O)N[C@H](C(=O)N[C@@H](CC(C)C)C(=O)N[C@@H](CO)C(=O)N[C@@H](CCCNC(=N)N)C(N)=O)[C@@H](C)CC)C(C)C)[C@@H](C)O [CJC-1295, (D-Ala^2, Gln^8, Ala^15, Leu^27)-GRF amide] (H-Y[dA]DAIFTQSYRKVLAQLSARKLLQDILSR-NH2)
[1]; qualitative
  Anticipated metabolic products (N- or C-terminally truncated analogues) in rat plasma: no analogous metabolites
  Detection of intact GHRH in rat plasma 4 h post-administration: identified
  Detection of intact GHRH in rat plasma 8 h post-administration: identified

## CC[C@H](C)[C@H](NC(=O)[C@H](C)NC(=O)[C@H](CC(=O)O)NC(=O)[C@H](C)NC(=O)[C@@H](N)Cc1ccc(O)cc1)C(=O)N[C@@H](Cc1ccccc1)C(=O)N[C@H](C(=O)N[C@@H](CC(N)=O)C(=O)N[C@@H](CO)C(=O)N[C@@H](Cc1ccc(O)cc1)C(=O)N[C@@H](CCCNC(=N)N)C(=O)N[C@@H](CCCCN)C(=O)N[C@H](C(=O)N[C@@H](CC(C)C)C(=O)NCC(=O)N[C@@H](CCC(N)=O)C(=O)N[C@@H](CC(C)C)C(=O)N[C@@H](CO)C(=O)N[C@@H](C)C(=O)N[C@@H](CCCNC(=N)N)C(=O)N[C@@H](CCCCN)C(=O)N[C@@H](CC(C)C)C(=O)N[C@@H](CC(C)C)C(=O)N[C@@H](CCC(N)=O)C(=O)N[C@@H](CC(=O)O)C(=O)N[C@H](C(=O)N[C@@H](CCSC)C(=O)N[C@@H](CO)C(=O)N[C@@H](CCCNC(=N)N)C(N)=O)[C@@H](C)CC)C(C)C)[C@@H](C)O [Sermorelin, GHRH1-29]
[1]; 0.1 mg intravenous single dose, sampling at 2, 4 and 8 h, qualitative
  Detection window of intact substance in plasma: ≤ 2 h
[1]
  In vivo biotransformation in rats (in words): readily biotransformed
[1]; qualitative
  Anticipated metabolic products (N- or C-terminally truncated analogues) in rat plasma: none of the anticipated metabolic products
[2]; EDTA plasma 30, 90 and 270 min after dosing
  Detection of intact drug in human plasma after subcutaneous application: not detected
[3]
  Degradation products (metabolites) detected after incubation in human plasma: the earlier reported metabolite (GRF3-29) [7] was observed
[3]; spiked to 10 μg/mL, 37 °C, after a period of 4 h (240 min), LC-HRMS full scan
  Intact drug remaining after incubation in human plasma: entirely degraded

## CC/C=C/CC(=O)N[C@@H](Cc1ccc(O)cc1)C(=O)N[C@@H](C)C(=O)N[C@@H](CC(=O)O)C(=O)N[C@@H](C)C(=O)N[C@H](C(=O)N[C@@H](Cc1ccccc1)C(=O)N[C@H](C(=O)N[C@@H](CC(N)=O)C(=O)N[C@@H](CO)C(=O)N[C@@H](Cc1ccc(O)cc1)C(=O)N[C@@H](CCCNC(=N)N)C(=O)N[C@@H](CCCCN)C(=O)N[C@H](C(=O)N[C@@H](CC(C)C)C(=O)NCC(=O)N[C@@H](CCC(N)=O)C(=O)N[C@@H](CC(C)C)C(=O)N[C@@H](CO)C(=O)N[C@@H](C)C(=O)N[C@@H](CCCNC(=N)N)C(=O)N[C@@H](CCCCN)C(=O)N[C@@H](CC(C)C)C(=O)N[C@@H](CC(C)C)C(=O)N[C@@H](CCC(N)=O)C(=O)N[C@@H](CC(=O)O)C(=O)N[C@H](C(=O)N[C@@H](CCSC)C(=O)N[C@@H](CO)C(=O)N[C@@H](CCCNC(=N)N)C(=O)N[C@@H](CCC(N)=O)C(=O)N[C@@H](CCC(N)=O)C(=O)NCC(=O)N[C@@H](CCC(=O)O)C(=O)N[C@@H](CO)C(=O)N[C@@H](CC(N)=O)C(=O)N[C@@H](CCC(N)=O)C(=O)N[C@@H](CCC(=O)O)C(=O)N[C@@H](CCCNC(=N)N)C(=O)NCC(=O)N[C@@H](C)C(=O)N[C@@H](CCCNC(=N)N)C(=O)N[C@@H](C)C(=O)N[C@@H](CCCNC(=N)N)C(=O)N[C@@H](CC(C)C)C(N)=O)[C@@H](C)CC)C(C)C)[C@@H](C)O)[C@@H](C)CC [Tesamorelin]
[1]; qualitative
  Detection of intact GHRH in rat plasma 4 h post-administration: identified
  Detection of intact GHRH in rat plasma 8 h post-administration: identified
[3]
  Degradation products (metabolites) detected after incubation in human plasma: no degradation products of considerable abundance were detected

## DAIFTNSYRKVLGQLSARKLLQDIMSR-NH2 [Sermorelin metabolite, GRF3-29, metabolite of Sermorelin originating from the loss of the N-terminal Tyr-Ala-residue]
[2]; EDTA plasma 30 min
  Detection of metabolite in human plasma 30 min post injection: detected
[2]; EDTA plasma 90 min
  Detection of metabolite in human plasma 90 min post injection: negative

## YADAIFTNSYRKVLGQLSARKLLQDIMSR-NH2
[4]
  cleaved bond: Ala2-D3
[5]
  cleaved bond: Ala2-D3
[6]
  cleaved bond: Ala2-D3, 30 min

## hexenoyl-YADAIFTNSYRKVLGQLSARKLLQDIMSRQQGESNQERGARARL-NH2
[7]
  not cleaved: identified at all sampling points (i.e., up to 8 h post-administration)
[5]
  not cleaved: no degradation products of considerable abundance were detected

Reference: article PMC4830873 (Analytical and Bioanalytical Chemistry, 2016)
